A short description of data set [1]: Incorporation (miscibility) of phenytoin into cyanoacrylate monomers. The data set is classed as physicochemical. Here is the method: According to the present invention, an effective amount of wound healing promoter, is incorporated into the pre-stabilized liquid monomeric cyanoacrylate adhesive compositions to form a homogeneous liquid adhesive product. […] After continuous stirring at this elevated temperature, the mixture of cyanaocrylate monomers and wound healing accelerator becomes a homogeneous solution within about 1 to 2 hours. Standard mixing equipment and techniques are suitable. The 5,5-[…], including phenytoin are readily available from major chemical distributors. […] Table 1 below summarizes the results of incorporating phenytoin into different cyanoacrylate monomer solutions at the elevated temperatures. […] At the elevated temperatures, phenytoin is soluble in both 2-octyl cyanoacrylate (OCA) and n-butyl cyanoacrylate (BCA). It is also interesting to note that phenytoin is more soluble in shorter alkyl chain cyanoacrylate (BCA) than in longer alkyl chain cyanoacrylate (OCA).

The subject of data set [2] is surgical wounds of periodontal patients. Conditions: topical; cited from earlier work.
Data set [3] deals with bacterial load of wounds. Conditions: clinical studies; cited from earlier work.

Consider one compound from US9533071B2, “Wound healing compositions including cyanoacrylate monomers and phenytoin” (Adhezion Biomedical, LLC, priority 2010, dated 2017).

Consider `O=C1NC(=O)C(c2ccccc2)(c2ccccc2)N1` [phenytoin, 5,5-diphenylhydantoin], for which, in data set [1] (elevated temperatures), the “Solubility in 2-octyl cyanoacrylate (OCA)” value is given as “soluble” and the “Solubility in n-butyl cyanoacrylate (BCA)” value is reported as “soluble”. For the same compound, the “Solubility in 2-octyl cyanoacrylate (OCA) monomer” value in data set [1] (room temperature) is given as “not soluble”. Moreover, the “Solubility in BCA compared with OCA” value in data set [1] (shorter vs longer alkyl chain cyanoacrylate) is reported as “more soluble”. In addition, in data set [2], the Inflammation and pain entry was “reduced inflammation and pain”; the Wound healing entry is recorded as “accelerated wound healing”. The “Bacterial load of wounds” value in data set [3] is recorded as “decrease the bacterial load of wounds”.
